Reference: article PMC11990103, “Anticancer Activity and Safety Profile of Novel 1-(4-Fluorophenoxyacetyl)-4-substituted Thio/Semicarbazide Derivatives” (Molecules, 2025)

What was measured:
zebrafish embryos = tested on: zebrafish embryos; parameters: method as in PMID 36436567; conditions: cited from earlier work
[1] = tested on: tested cancer cell lines (PC-3, DU-145, LNCaP, SK-MEL28, A375, G-361, MCF-7, MDA-MB-231, NCI-H1563); assay: MTT cytotoxicity assay, panel of nine cancer cell lines as a whole; assay type: cell-based, human
Method: (§1) These cancer cell lines comprised prostate cancer (PC-3, DU-145, LNCaP), melanoma (SK-MEL28, A375, G-361), breast cancer (MCF-7, MDA-MB-231), and lung cancer (NCI-H1563). The MTT assay was carried out across a wide range of concentrations for 48 h.
The research was conducted on one primary cell line: BJ (fibroblast) and four types of cancerous ones: three prostate cancer cell lines (PC-3, DU-145, LNCaP); 3 Melanoma cell lines (MEL-28, A375, G-361); 2 breast cancer cell lines (MCF-7, MDA-MB-23) and one lung cancer cell line (NCI-H1563). […]
The cytotoxic analysis of thiosemicarbazides (TSC) (AB1–AB6) and semicarbazides (SC) (AB7–AB12) was conducted in various concentrations. […] IC50 values were determined using the AAT Bioquest IC50 calculator (AAT Bioquest, Inc., Pleasanton, CA, USA, Quest Graph™ EC50 Calculator. https://www.aatbio.com/tools/ec50-calculator) (accessed on 7 October 2024).
The cytotoxic activity of the thiosemicarbazides and semicarbazides was measured using the MTT colorimetric assay (MTT Cell Proliferation Assay Kit—Invitrogen, Waltham, MA, USA). […] The absorbance value of obtained solutions was measured using a PowerWave ™ microplate spectrophotometer (Bio-Tek Instruments, Winooski, VT, USA) at a wavelength of 570 nm. […]

[2] = tested on: MCF-7 breast cancer cell line; assay: MTT cytotoxicity assay; assay type: cell-based, human; conditions: 48 h treatment
Method: as §1
(§2) The research was conducted on one primary cell line: BJ (fibroblast) and four types of cancerous ones: three prostate cancer cell lines (PC-3, DU-145, LNCaP); 3 Melanoma cell lines (MEL-28, A375, G-361); 2 breast cancer cell lines (MCF-7, MDA-MB-23) and one lung cancer cell line (NCI-H1563). All cell lines were obtained from the American Type Culture Collection (ATCC, Manassas, VA, USA) and were grown in media (Corning, New York, NY, USA) according to ATCC guidelines. The culture media was enriched with 10% heat-inactivated fetal bovine serum (Life Technologies, Carlsbad, CA, USA) and antibiotics: penicillin (100 units) and streptomycin (100 μg/mL) from Sigma-Aldrich (St. Louis, MO, USA). The cells were incubated at 37 °C with 5% CO2 in air.
(§3) The cytotoxic analysis of thiosemicarbazides (TSC) (AB1–AB6) and semicarbazides (SC) (AB7–AB12) was conducted in various concentrations. […] The cells were treated with compounds or DMSO as a vehicle in control cultures for 48h. IC50 values were determined using the AAT Bioquest IC50 calculator (AAT Bioquest, Inc., Pleasanton, CA, USA, Quest Graph™ EC50 Calculator. https://www.aatbio.com/tools/ec50-calculator) (accessed on 7 October 2024).
(§4) The cytotoxic activity of the thiosemicarbazides and semicarbazides was measured using the MTT colorimetric assay (MTT Cell Proliferation Assay Kit—Invitrogen, Waltham, MA, USA). The cells were seeded in the 96-well plates at a density of 1.5 × 10^5 cells/mL. After reaching 70–80% of confluence, the tested compounds in a wide range of concentrations were added. Plates were incubated for 48 h at 37 °C in 5% CO2 air. Then, […] tetrazolium salt (3-(4,5-dimethylthiazol-2-yl)-2,5-diphenyltetrazolium bromide)—MTT reagent (0.5 mg/mL) dissolved in PBS was added to each well for 4 h. The MTT solution was then removed from above the water-insoluble purple formazan crystals, which were then dissolved in DMSO (dimethyl sulfoxide, […]; POCH, Gliwice, Poland). The absorbance value of obtained solutions was measured using a PowerWave ™ microplate spectrophotometer (Bio-Tek Instruments, Winooski, VT, USA) at a wavelength of 570 nm. Each cytotoxicity assay was repeated three times in triplicates.

[3] = tested on: PC-3 prostate cancer cell line; assay: MTT cytotoxicity assay; assay type: cell-based, human; conditions: 48 h treatment
Method: as §1, §2, §3, §4

[4] = tested on: SK-MEL28 melanoma cell line; assay: MTT cytotoxicity assay; assay type: cell-based, human; conditions: 48 h treatment
Method: as §1, §2, §3, §4

[5] = tested on: NCI-H1563 lung cancer cell line; assay: MTT cytotoxicity assay; assay type: cell-based, human; conditions: 48 h treatment
Method: as §1, §2, §3, §4

[6] = tested on: DU-145 prostate cancer cell line; assay: MTT cytotoxicity assay; assay type: cell-based, human; conditions: 48 h treatment
Method: as §1, §2, §3, §4

G-361 melanoma cell line = assay: MTT cytotoxicity assay; assay type: cell-based, human; conditions: MTT, 48 h treatment
Method: as §1, §2, §3, §4

[7] = tested on: MDA-MB-231 breast cancer cell line; assay: MTT cytotoxicity assay; assay type: cell-based, human; conditions: 48 h treatment
Method: as §1, §2, §3, §4

[8] = tested on: LNCaP prostate cancer cell line; assay: MTT cytotoxicity assay; assay type: cell-based, human; conditions: MTT, 48 h treatment
Method: as §1, §2, §3, §4

A375 melanoma cell line = assay: MTT cytotoxicity assay; assay type: cell-based, human; conditions: 48 h treatment
Method: as §1, §2, §3, §4

BJ fibroblasts = assay: MTT cytotoxicity assay, normal cells; assay type: cell-based, human; conditions: 48 h treatment, read-out: IC50 BJ (fibroblast)
Method: as §1, §2, §3, §4

G-361 melanoma cells = tested on: G-361 melanoma cells; parameters: method as in PMID 35204651; conditions: cited from earlier work
[9] = parameters: method as in PMID 14912098; conditions: as toxic as thiosemicarbazide; cited from earlier work

## CCNC(=O)NNC(=O)c1ccc([N+](=O)[O-])cc1 [1-(4-nitrobenzoyl)-4-ethylsemicarbazide]
Zebrafish embryos
  morphological abnormalities, including cardiotoxicity: do not cause morphological abnormalities, including cardiotoxicity

## CCCCCCNC(=O)NNC(=O)Cc1ccc([N+](=O)[O-])cc1 [1-[(4-nitrophenyl)acetyl]-4-hexylsemicarbazide]
Zebrafish embryos
  morphological abnormalities, including cardiotoxicity: do not cause morphological abnormalities, including cardiotoxicity

## O=C(COc1ccc(F)cc1)NNC(=S)Nc1ccccc1 [AB1]
[1]; MTT, 48 h, thiosemicarbazides tested 500 to 100 μM, semicarbazides 100 μM to 1 μM, read-out: IC50 in the tested cancer cell lines (stated for the panel)
  IC50: > 500 µM
[2]
  IC50: > 500 µM
[3]
  IC50: > 500 µM
[4]
  IC50: > 500 µM
[5]
  IC50: > 500 µM
[6]
  IC50: > 500 µM
G-361 melanoma cell line
  IC50: 369 µM
[7]
  IC50: > 500 µM
[8]
  IC50: 252 µM
A375 melanoma cell line
  IC50: > 500 µM
BJ fibroblasts
  IC50: 498 µM

## O=C(COc1ccc(F)cc1)NNC(=S)Nc1cccc(Cl)c1 [AB3]
[2]
  IC50: 456 µM
[3]
  IC50: 467 µM
[4]
  IC50: 302 µM
[5]
  IC50: 437 µM
[6]
  IC50: 268 µM
G-361 melanoma cell line
  IC50: 248 µM
[7]
  IC50: 495 µM
[8]
  IC50: 175 µM
A375 melanoma cell line
  IC50: 400 µM
BJ fibroblasts
  IC50: 422 µM

## O=C(COc1ccc(F)cc1)NNC(=S)Nc1ccc(Cl)cc1 [AB4]
[2]
  IC50: 343 µM
[3]
  IC50: 355 µM
[4]
  IC50: 322 µM
[5]
  IC50: 293 µM
[6]
  IC50: 297 µM
G-361 melanoma cell line
  IC50: 265 µM
[7]
  IC50: 421 µM
[8]
  IC50: 257 µM
A375 melanoma cell line
  IC50: 399 µM
BJ fibroblasts
  IC50: 313 µM

## O=C(COc1ccc(F)cc1)NNC(=S)Nc1ccc(Cl)cc1Cl [AB5]
[2]
  IC50: 421 µM
[3]
  IC50: 395 µM
[4]
  IC50: 297 µM
[5]
  IC50: 372 µM
[6]
  IC50: 401 µM
G-361 melanoma cell line
  IC50: 276 µM
[7]
  IC50: 445 µM
[8]
  IC50: 154 µM
A375 melanoma cell line
  IC50: 384 µM
BJ fibroblasts
  IC50: 303 µM

## O=C(COc1ccc(F)cc1)NNC(=S)Nc1ccc(Cl)c(Cl)c1 [AB6]
[1]; IC50 normal cells (BJ) divided by IC50 cancer cells, cell line not specified
  selectivity index (SI): < 1
[2]
  IC50: 240 µM
[3]
  IC50: 388 µM
[4]
  IC50: 195 µM
[5]
  IC50: 242 µM
[6]
  IC50: 343 µM
G-361 melanoma cell line
  IC50: 210 µM
[7]
  IC50: 334 µM
[8]
  IC50: 121 µM
A375 melanoma cell line
  IC50: 257 µM
BJ fibroblasts
  IC50: < 100 µM

## N.N.[Cl][Pt][Cl] [Cisplatin, reference compound]
[2]
  IC50: 22.6 µM
[3]
  IC50: 52.2 µM
[4]
  IC50: 25.8 µM
[5]
  IC50: 2.78 µM
[6]
  IC50: 64.1 µM
G-361 melanoma cell line
  IC50: 12.5 µM
[7]
  IC50: 38.7 µM
[8]
  IC50: 31.5 µM
A375 melanoma cell line
  IC50: 18.2 µM

## CSc1ccc(NC(=S)NNC(=O)COc2ccc(Cl)cc2Cl)cc1 [PK2]
G-361 melanoma cells
  population of cells in the sub-G1 phase: increase

## NNC(N)=O [semicarbazide]
[9]
  toxicity relative to thiosemicarbazide: about 1/20
